Experimental data as given in patent US12630501B2, “Anti-fibrotic compounds and use thereof” (HADASIT MEDICAL RESEARCH SERVICES AND DEVELOPMENT LTD., priority 2019, dated 2026).

Columns and labels:
[1] = system: BLM-treated C57BL/6 WT mice; assay: Bleomycin-induced lung fibrosis in mice, CMH by oropharyngeal aspiration; assay type: in vivo, mouse
From the text: Animals C57BL/6 and mutant mice, male, 11-12 weeks old (Harlan Sprague Dawley, Indianapolis, IN, USA) were used. SIRT1 dominant-negative mice carry a point mutation (H355Y), Sirt1^tm2.1Mcby (Sirt1^y/y, RBRC05324, RIKEN Bio Resource Center, Japan) that ablates SIRT1 enzymatic activity, described in Gabay et al., Arthritis Rheum. 65: 159-166, 2013; and Seifert et al., FASEB J. 26: 555-566, 2012. Mice were maintained under specific pathogen-free conditions with adherence to institutional guidelines for the care and use of laboratory animals. Chimeric mice with SIRT1-deficient mice and WT hematopoietic cells were generated as described in Golan-Gerstl et al., Am. J. Respir Cell Mol. Biol. 36: 270-275, 2007.
(§1) Oropharyngeal aspiration (OA) and induction of lung fibrosis in mice Oropharyngeal aspiration of BLM (OA-BLM) was performed as detailed in Golan-Gerstl et al., Am. J. Respir. Cell Mol. Biol. 36: 270-275, 2007. Lung fibrosis was assessed via semi-quantitative morphological index (Wallach-Dayan et al., PNAS USA 104: 20460-20465, 2007). Lung collagen was measured using a Sircol Collagen Assay kit (Biocolor, Belfast, Northern Ireland), and standard protocol of trichrome staining. Isolation of mouse lung myofibroblasts Myofibroblast isolation and culture was performed as described in Golan-Gerstl et al., Am. J. Respir. Cell Mol. Biol. 36: 270-275, 2007; and Wallach-Dayan et al., PNAS USA 104: 20460-20465, 2007.
Immunohistochemistry (IHC) staining of lung tissue sections was performed as described in Golan-Gerstl et al., Am. J. Respir Cell Mol. Biol. 36: 270-275, 2007; and Wallach-Dayan et al., PNAS USA 104: 20460-20465, 2007.
(§2) CMH (30 μM) or control vehicle 4% DMSO were administered into WT mice by a second OA on day 6 of OA-BLM (0.05 mU), or control-saline (FIG. 6A). Similar to SIRT1^y/y mice, BLM-treated mice and control saline-treated mice (FIG. 6B) that were exposed to CMH vs. vehicle alone, had low SIRT1 and FLIP expression in lung sections. Myofibroblasts isolated from lungs of BLM-treated mice had decreased Ku70 binding to SIRT1 from 1.2 to 0.6 (FIG. 6C), increased Ku70 acetylation from an OD of 0.1 to 0.91 (FIG. 6D), and decreased Ku70/FLIP complex from an OD of 2.43 to 1.55 (FIG. 6E). Compared to vehicle, CMH-treated mice reduced H&E and collagen-trichrome staining (FIG. 6F, upper and lower panels, respectively), SMI grade (average SMI from 2 to 1.1, FIG. 6G), and collagen in Sircol assay (from 200 μg to only 50 μg, FIG. 6H). Thus, In vivo inhibition of SIRT1 activity, FLIP expression, and lung fibrosis were detected in CMH-BLM-treated mice and attenuation of deacetylation activity on Ku70, a decrease in Ku70/FLIP complex, and FLIP expression levels were detected in myofibroblasts isolated from lungs of CMH-BLM-treated mice. SIRT1-mediated Ku70-deacetylation may therefore stabilize FLIP via Ku70/FLIP complex in lung myofibroblasts promoting fibrosis, which can be inhibited by CMH.

HDACS = HDACS (Homo sapiens, UniProt Q9UQL6); details: prostate cancer cells; cited from earlier work
Chain of HDACS (Q9UQL6 whole entry): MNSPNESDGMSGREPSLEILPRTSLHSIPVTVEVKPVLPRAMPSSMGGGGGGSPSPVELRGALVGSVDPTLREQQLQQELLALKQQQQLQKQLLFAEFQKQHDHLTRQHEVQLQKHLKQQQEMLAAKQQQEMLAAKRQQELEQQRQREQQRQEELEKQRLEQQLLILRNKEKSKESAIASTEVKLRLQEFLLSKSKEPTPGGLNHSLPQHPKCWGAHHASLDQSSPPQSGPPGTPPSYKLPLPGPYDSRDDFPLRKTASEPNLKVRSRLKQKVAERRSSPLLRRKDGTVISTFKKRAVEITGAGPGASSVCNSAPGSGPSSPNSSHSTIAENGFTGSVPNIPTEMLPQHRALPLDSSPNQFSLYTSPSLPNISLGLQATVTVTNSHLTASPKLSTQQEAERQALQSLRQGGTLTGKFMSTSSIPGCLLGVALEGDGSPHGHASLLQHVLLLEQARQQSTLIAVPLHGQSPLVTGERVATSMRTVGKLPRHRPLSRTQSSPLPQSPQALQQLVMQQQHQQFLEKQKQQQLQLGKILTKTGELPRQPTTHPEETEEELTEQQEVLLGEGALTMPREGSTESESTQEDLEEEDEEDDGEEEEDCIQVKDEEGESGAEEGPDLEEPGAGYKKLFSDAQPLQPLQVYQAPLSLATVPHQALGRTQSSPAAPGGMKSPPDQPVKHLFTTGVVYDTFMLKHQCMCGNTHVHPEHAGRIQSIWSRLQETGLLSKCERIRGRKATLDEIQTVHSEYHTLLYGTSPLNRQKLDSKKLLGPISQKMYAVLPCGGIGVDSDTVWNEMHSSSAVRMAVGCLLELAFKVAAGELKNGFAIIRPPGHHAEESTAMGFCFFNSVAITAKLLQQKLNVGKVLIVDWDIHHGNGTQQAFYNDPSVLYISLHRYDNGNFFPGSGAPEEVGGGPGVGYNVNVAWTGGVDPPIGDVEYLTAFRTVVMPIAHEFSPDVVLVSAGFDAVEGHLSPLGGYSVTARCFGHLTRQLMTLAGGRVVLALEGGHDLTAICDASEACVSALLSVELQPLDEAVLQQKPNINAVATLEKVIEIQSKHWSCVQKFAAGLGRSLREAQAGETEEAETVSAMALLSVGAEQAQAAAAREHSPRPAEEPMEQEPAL

Ku70 [2] = assay: Ku70-IP and immunoblots of myofibroblasts isolated from lungs of BLM-treated mice given CMH; assay type: in vivo, mouse; details: CMH 30 μM OA day 6, sacrifice day 14
Protocol: as §1
(§3) Immunoprecipitation and immunoblotting Standard protocols were performed as described in Golan-Gerstl et al., Am. J. Respir. Cell Mol. Biol. 47: 271-279, 2012.
as §2, with “SIRT1-mediated Ku70-deacetylation may therefore stabilize FLIP via Ku70/FLIP complex in lung myofibroblasts promoting fibrosis, which can be inhibited by CMH.” left out

HDAC3 = HDAC3 (Homo sapiens, UniProt O15379); details: prostate cancer cells; cited from earlier work
Chain of HDAC3 (O15379 whole entry, species assumed): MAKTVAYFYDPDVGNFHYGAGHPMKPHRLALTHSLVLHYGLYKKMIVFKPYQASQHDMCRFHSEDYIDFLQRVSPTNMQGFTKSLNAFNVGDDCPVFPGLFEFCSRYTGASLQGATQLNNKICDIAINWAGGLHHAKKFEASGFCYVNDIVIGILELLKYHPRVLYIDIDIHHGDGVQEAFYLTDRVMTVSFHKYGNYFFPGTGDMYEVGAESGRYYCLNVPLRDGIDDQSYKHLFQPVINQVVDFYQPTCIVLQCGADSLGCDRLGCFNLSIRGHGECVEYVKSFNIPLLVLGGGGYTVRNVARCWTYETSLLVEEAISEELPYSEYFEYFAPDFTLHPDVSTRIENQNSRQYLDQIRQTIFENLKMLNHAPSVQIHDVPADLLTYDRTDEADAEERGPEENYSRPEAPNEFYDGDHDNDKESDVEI
Chain of HDAC3 (Q9Y618 395-489 partner limits assumed, species assumed): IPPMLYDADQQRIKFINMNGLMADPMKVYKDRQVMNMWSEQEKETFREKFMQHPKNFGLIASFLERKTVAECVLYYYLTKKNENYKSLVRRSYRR

HDAC9 = HDAC9 (Homo sapiens, UniProt Q9UKV0); details: prostate cancer cells; cited from earlier work
Chain of HDAC9 (Q9UKV0 whole entry, species assumed): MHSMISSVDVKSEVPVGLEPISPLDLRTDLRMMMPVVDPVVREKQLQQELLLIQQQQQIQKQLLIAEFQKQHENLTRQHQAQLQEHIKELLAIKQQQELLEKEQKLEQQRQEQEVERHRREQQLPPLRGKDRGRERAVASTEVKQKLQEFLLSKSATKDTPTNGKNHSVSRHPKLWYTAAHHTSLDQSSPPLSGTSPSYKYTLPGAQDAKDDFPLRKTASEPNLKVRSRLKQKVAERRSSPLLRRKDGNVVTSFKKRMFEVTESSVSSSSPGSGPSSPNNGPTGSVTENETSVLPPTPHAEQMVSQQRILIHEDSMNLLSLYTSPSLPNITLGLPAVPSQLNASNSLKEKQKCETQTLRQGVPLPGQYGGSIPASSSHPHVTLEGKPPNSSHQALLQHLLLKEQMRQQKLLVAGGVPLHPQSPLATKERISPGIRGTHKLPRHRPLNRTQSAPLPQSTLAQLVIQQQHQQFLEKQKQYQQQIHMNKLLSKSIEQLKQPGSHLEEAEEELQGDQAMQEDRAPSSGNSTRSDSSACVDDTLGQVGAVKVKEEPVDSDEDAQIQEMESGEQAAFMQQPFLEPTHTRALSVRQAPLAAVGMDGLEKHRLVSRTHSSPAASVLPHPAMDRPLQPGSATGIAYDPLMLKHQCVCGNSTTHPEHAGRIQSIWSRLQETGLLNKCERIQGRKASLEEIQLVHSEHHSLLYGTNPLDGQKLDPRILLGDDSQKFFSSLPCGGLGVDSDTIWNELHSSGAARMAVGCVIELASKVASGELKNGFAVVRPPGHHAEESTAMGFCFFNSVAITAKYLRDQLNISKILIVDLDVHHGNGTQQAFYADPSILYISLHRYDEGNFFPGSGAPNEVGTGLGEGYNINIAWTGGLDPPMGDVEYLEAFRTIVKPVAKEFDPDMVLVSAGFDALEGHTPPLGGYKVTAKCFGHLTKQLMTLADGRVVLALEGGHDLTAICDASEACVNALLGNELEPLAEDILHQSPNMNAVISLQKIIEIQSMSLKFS

Ku70 [3] = assay: Ku70 immunoprecipitation with pan-acetyl / Ku70 immunoblot in IPF-lung myofibroblasts; assay type: cell-based, human; details: CMH 30 μM, 72 h
Protocol: Human lung myofibroblasts Differentiated fibroblasts from IPF-lungs and controls from patient lung biopsies performed for tumor diagnosis were obtained under a protocol detailed in Wallach-Dayan et al., J. Autoimmun. 59: 67-76, 2015. LL 97A (AlMy) (ATCC® CCL-191™)-IPF-lung, and LL 24 (ATCC® CCL-151™)-normal lung fibroblast cell lines were used.
as §3
FLIP downregulation from an OD of 1.85 to 0.49 (about 3.5-fold) was detected in WB (FIG. 4F), and a […] from a mean fluorescence intensity (MFI)=10^3 to only 10^1 was detected with flow cytometry (FIG. 4G). Thus, SIRT1-mediated Ku70-deacetylation stabilizes IPF-lung myofibroblast FLIP via Ku70/FLIP complex. This effect of CMH on Ku70 further disrupts Ku70/FLIP complex and destabilizes FLIP in IPF-lung myofibroblasts.
IPF cell line ATCC-191 (0.5×10^6), were exposed in culture (10% DMEM) to a compound of Formula 6 (1 or 3 μM) vs. 4% DMSO (vehicle) for 16 h. Ku70 immunoprecipitation with subsequent pan-acetyl (FIG. 8A) and immunoblots of Ku70 with anti-Ku70 mAb (FIG. 8B) or FLIP with anti-FLIP mAb (FIG. 8C) were measured. […] IPF-lung myofibroblasts decreased FLIP expression from an OD of 1.00 to 0.51 (about twofold, FIG. 8C).

[4] = CMH 30 μM by OA on day 6 of OA-BLM, vs. vehicle

For `Cc1cc(Cl)ccc1OCCCC(=O)NO` [CMH, 4-(4-chloro-2-methylphenoxy)-N-hydroxybutanamide], the “H&E and collagen-trichrome staining of lung tissue sections” value ([1]; CMH 30 μM OA day 6, day 14 post BLM, compared to vehicle) was “reduced”, the “Collagen in Sircol assay” value ([1]; CMH 30 μM OA day 6, day 14 post BLM, vehicle 200 μg) was 50 µg and the “Average SMI grade (semi-quantitative morphological index)” value ([1]; CMH 30 μM OA day 6, day 14 post BLM, vehicle 2) was 1.1. The “FLIP expression in lung sections (IHC)” value [1, 4] was “low”, the “SIRT1 expression in lung sections (IHC)” value [1, 4] was “low” and the “Inhibition of HDACS” value (HDACS) was “not inhibited”. For the same molecule, the “Ku70 acetylation OD (Ku70-IP, pan-acetyl IB)” value (Ku70 [2]; from 0.1) was 0.91 OD, the “Ku70 binding to SIRT1 (Ku70-IP, SIRT1 IB)” value (Ku70 [2]; from 1.2) was 0.6 and the “Ku70/FLIP complex OD (Ku70-IP, FLIP IB)” value (Ku70 [2]; from 2.43) was 1.55 OD. The “Inhibition of HDAC3” value (HDAC3) was “Selective inhibition”, the “Inhibition of HDAC9” value (HDAC9) was “not inhibited” and the “Increase of Ku70 acetylation” value (Ku70 [3]) was “about twofold”. The “Ku70 acetylation, optical density ratio (OD) in pan-acetyl IB of Ku70 IP” value (Ku70 [3]; from 2.43 before) was 5.6 OD.
